Measured values: article PMC10817170, “Effect of an NHE3 inhibitor in combination with an NPT2b inhibitor on gastrointestinal phosphate absorption in Rodent models” (PLOS ONE, 2024)
Several values for one entry are separate records, joined by “and”; a condition that tells them apart may be missing. Identical values can stand only once.

What was measured:
NHE3 = system: T1, NHE3; test: Sodium and phosphate excretion in urine after oral NaH2PO4 bolus in rats; format: in vivo; conditions: 4 h urine; for Phosphorus-to-Creatinine / Sodium-to-Creatinine / Total Urinary Phosphorus / Total Urinary Sodium / Urinary-to-Dietary Phosphate / Urinary-to-Dietary Sodium / Urine Volume: NaH2PO4 bolus
T1 construct: from tissue; host or cells: intestine of living SD rats
Experimental: To assess sodium and phosphate absorption in rats, we took advantage of the increase in urinary sodium and phosphate excretion following an oral bolus of sodium phosphate. Thus, an LY3304000 dependent decrease in urinary sodium and phosphate excretion following an oral bolus dose of sodium phosphate is an indirect measurement of the ability of LY3304000 to inhibit sodium and phosphate absorption in intestine. A dosing solution of 3 mg/kg LY3304000 for a 10 mL/kg dose volume was formulated in 1% HEC. The subsequent dosing solutions of 1, 0.3, 0.1, 0.03, 0.01, 0.003, and 0.001 mg/kg LY3304000 were prepared by serial dilutions with 1% HEC. An NaH2PO4 dosing solution at 690 mg/kg with a 20 mL/kg dosing volume was made in sterile water. Male SD rats were fasted for 4 hours with access to water and then orally dosed at 10 mL/kg with 1% HEC vehicle or varying dose of LY3304000 at 0.001, 0.003, 0.01, 0.03, 0.1, 0.3, 1, and 3 mg/kg. In this and subsequent studies where phosphate absorption is measured, a 4 hour fast was used which is less disruptive to the animal’s normal physiology than the 12 hours fast used to measure acute phosphate uptake into plasma. Fifteen minutes later, rats were dosed with either sterile water or NaH2PO4 solution, and then immediately transferred to metabolic cages. Urine samples were collected from the metabolic cages at 4 hours post sterile water or NaH2PO4 dose. The net urine volume was recorded. Urinary sodium, creatinine, and phosphorus (as a measure of phosphate) were determined using a clinical biochemistry analyzer. The urinary sodium-to-creatinine and phosphorus-to-creatinine ratios were calculated and compared between vehicle and LY3304000 treated groups. The ratios of urinary-to-dietary phosphate (measured as phosphorus) and urinary-to-dietary sodium in urine were compared between vehicle and LY3304000 treated groups.

[1] = system: intestinal phosphate absorption; test: Phosphate absorption in rats: 33P in plasma (15 min) and recovered in gastrointestinal tract (4 h), single agents and combination; format: in vivo; conditions: 0.4 mg/kg LY3304000, 10 mg/kg LY3358966 or both
Experimental: We also evaluated the effect of LY3304000 and LY3358966 in combination on phosphate absorption in rats by measuring radioactive phosphate recovered in either plasma or the gastrointestinal (GI) tract. In this combination study, two vehicles were used. One is 1% HEC vehicle for making LY3304000 dosing solution, another is 0.46% PVP-VA vehicle contained in LY3358966 SDD. To make the LY3358966 dosing solution, an appropriate amount of LY3358966-SDD was weighed for a 10 mg/kg API dosing solution with 5 mL/kg dosing volume and dissolved in water. To make the LY3304000 dosing solution, an appropriate amount of LY3304000 was weighed for a 0.4 mg/kg dosing solution with 5 mL/kg dosing volume and dissolved in 1% HEC. The Radiolabeled Phosphate Dosing Solutions was made as described above. Following 4-hour fasting with access to water, male SD rats were orally dosed at 10 mL/kg with either two vehicles, an LY3358966 dosing solution and 1% HEC vehicle, an LY3304000 dosing solution and 0.46% PVP-VA vehicle, or an LY3304000 and LY3358966 dosing solutions, combined 1:1 by volume. Fifteen minutes later, Radiolabeled Phosphate Dosing Solution was orally dosed in a 2 mL volume. Fifteen minutes after the radiolabeled phosphate dose, blood was collected by retro orbital bleeding, and plasma was prepared. Radioactivity (dpm) in 20-μL plasma was measured by scintillation counting. The mole amount of phosphate uptake in the plasma was calculated as described above. Four hours post radioactive phosphate dose, the animals were sacrificed by asphyxiation with CO2 followed by cervical dislocation and then the stomach, small intestine, large intestine, and feces were collected and weighed. The tissues and feces were digested in 20 mL or 10 mL of 1 N NaOH, respectively, overnight at 37°C. A 100 μL sample of the homogenates were dispensed into scintillation vials and mixed with 10 mL of Optiphase Supermax scintillation fluid (PerkinElmer), and radioactivity (dpm) was measured by scintillation counting. Very little radioactivity was detected in the feces at 4 hours post radioactive phosphate dose. The percentage of radiolabeled phosphate recovered in the gastrointestinal tissue was defined as radioactivity (dpm) recovered in each fraction compared to the amount of radioactivity (dpm) administered. The mole amount of phosphate uptake into plasma in vehicle and LY3358966 and LY3304000 alone groups were compared to the LY3358966 and LY3304000 combination group using One-way ANOVA with Dunnett’s multiple comparisons. Percent recovery of ^33P phosphate in the rat gastrointestinal tract was analyzed by two-way analysis of variance (ANOVA) in JMP 12.1 to test for additivity of the effects of LY3304000 and LY3358966 on inhibiting phosphate absorption.

SMILES: CN1Cc2c(Cl)cc(Cl)cc2[C@H](c2cccc(S(=O)(=O)NCCOCCOCCN/C(=N\C(N)=O)NCCCCN/C(=N/C(N)=O)NCCOCCOCCNS(=O)(=O)c3cccc([C@@H]4CN(C)Cc5c(Cl)cc(Cl)cc54)c3)c2)C1.Cl.Cl [LY3304000, (Z)-[[4-[[(Z)-N’-carbamoyl-N-[2-[2-[2-[[3-[(4S)-6,8-dichloro-2-methyl-3,4-dihydro-1H-isoquinolin-4-yl]phenyl]sulfonylamino]ethoxy]ethoxy]ethyl]carbamimidoyl]amino]butylamino]-[2-[2-[2-[[3-[(4S)-6,8-dichloro-2-methyl-3,4-dihydro-1H-isoquinolin-4-yl]phenyl]sulfonylamino]ethoxy]ethoxy]ethylamino]methylene]urea dihydrochloride]
- Phosphorus-to-Creatinine (NHE3; 0.001 mg/kg po): 14 mg/mg
- Sodium-to-Creatinine (NHE3; 0.001 mg/kg po): 10 mg/mg
- Total Urinary Phosphorus (NHE3; 0.001 mg/kg po): 12501 µg
- Total Urinary Sodium (NHE3; 0.001 mg/kg po): 9084 µg
- Urinary-to-Dietary Phosphate (NHE3; 0.001 mg/kg po): 0.337
- Urinary-to-Dietary Sodium (NHE3; 0.001 mg/kg po): 0.326
- Urine Volume (NHE3; 0.001 mg/kg po): 4 mL
- Phosphorus-to-Creatinine (NHE3; 0.003 mg/kg po): 14.1 mg/mg
- Sodium-to-Creatinine (NHE3; 0.003 mg/kg po): 12.2 mg/mg
- Total Urinary Phosphorus (NHE3; 0.003 mg/kg po): 12997 µg
- Total Urinary Sodium (NHE3; 0.003 mg/kg po): 11429 µg
- Urinary-to-Dietary Phosphate (NHE3; 0.003 mg/kg po): 0.350
- Urinary-to-Dietary Sodium (NHE3; 0.003 mg/kg po): 0.413
- Urine Volume (NHE3; 0.003 mg/kg po): 4.6 mL
- Phosphorus-to-Creatinine (NHE3; 0.01 mg/kg po): 15 mg/mg
- Sodium-to-Creatinine (NHE3; 0.01 mg/kg po): 9.8 mg/mg
- Total Urinary Phosphorus (NHE3; 0.01 mg/kg po): 12066 µg
- Total Urinary Sodium (NHE3; 0.01 mg/kg po): 8104 µg
- Urinary-to-Dietary Phosphate (NHE3; 0.01 mg/kg po): 0.320
- Urinary-to-Dietary Sodium (NHE3; 0.01 mg/kg po): 0.290
- Urine Volume (NHE3; 0.01 mg/kg po): 3.8 mL
- Phosphorus-to-Creatinine (NHE3; 0.03 mg/kg po): 13 mg/mg
- Sodium-to-Creatinine (NHE3; 0.03 mg/kg po): 9.8 mg/mg
- Total Urinary Phosphorus (NHE3; 0.03 mg/kg po): 9961 µg
- Total Urinary Sodium (NHE3; 0.03 mg/kg po): 7637 µg
- Urinary-to-Dietary Phosphate (NHE3; 0.03 mg/kg po): 0.268
- Urinary-to-Dietary Sodium (NHE3; 0.03 mg/kg po): 0.276
- Urine Volume (NHE3; 0.03 mg/kg po): 2.7 mL
- Phosphorus-to-Creatinine (NHE3; 0.1 mg/kg po): 12.3 mg/mg
- Sodium-to-Creatinine (NHE3; 0.1 mg/kg po): 5.3 mg/mg
- Total Urinary Phosphorus (NHE3; 0.1 mg/kg po): 7247 µg
- Total Urinary Sodium (NHE3; 0.1 mg/kg po): 2850 µg
- Urinary-to-Dietary Phosphate (NHE3; 0.1 mg/kg po): 0.197
- Urinary-to-Dietary Sodium (NHE3; 0.1 mg/kg po): 0.105
- Urine Volume (NHE3; 0.1 mg/kg po): 1.7 mL
- Phosphorus-to-Creatinine (NHE3; 0.3 mg/kg po): 12 mg/mg
- Sodium-to-Creatinine (NHE3; 0.3 mg/kg po): 2.4 mg/mg
- Total Urinary Phosphorus (NHE3; 0.3 mg/kg po): 6250 µg
- Total Urinary Sodium (NHE3; 0.3 mg/kg po): 1095 µg
- Urinary-to-Dietary Phosphate (NHE3; 0.3 mg/kg po): 0.168
- Urinary-to-Dietary Sodium (NHE3; 0.3 mg/kg po): 0.039
- Urine Volume (NHE3; 0.3 mg/kg po): 1 mL
- Phosphorus-to-Creatinine (NHE3; 1 mg/kg po): 11.3 mg/mg
- Sodium-to-Creatinine (NHE3; 1 mg/kg po): 2.4 mg/mg
- Total Urinary Phosphorus (NHE3; 1 mg/kg po): 7081 µg
- Total Urinary Sodium (NHE3; 1 mg/kg po): 1400 µg
- Urinary-to-Dietary Phosphate (NHE3; 1 mg/kg po): 0.191
- Urinary-to-Dietary Sodium (NHE3; 1 mg/kg po): 0.051
- Urine Volume (NHE3; 1 mg/kg po): 1.4 mL
- Phosphorus-to-Creatinine (NHE3; 3 mg/kg po): 9.5 mg/mg
- Total Urinary Phosphorus (NHE3; 3 mg/kg po): 5346 µg
- Total Urinary Sodium (NHE3; 3 mg/kg po): 612 µg
- Urinary-to-Dietary Phosphate (NHE3; 3 mg/kg po): 0.144
- Urinary-to-Dietary Sodium (NHE3; 3 mg/kg po): 0.022
- Urine Volume (NHE3; 3 mg/kg po): 1 mL
- Sodium-to-Creatinine (NHE3; 3 mg/kg po, 3 mg/kg): 1.0 ± 0.4 mg/mg and 1 mg/mg
- ED50, urinary phosphorus excretion (NHE3; urinary-to-dietary phosphorus): 0.041 mg/kg
- ED50, urinary sodium excretion (NHE3; urinary-to-dietary sodium): 0.058 mg/kg
- phosphate uptake into plasma ([1]; 15 min post 33P phosphate, vehicle 166, mean ± SEM, n=8): 118 nmol and 118 ± 8 nmol
- percentage of radiolabeled phosphate recovered, Feces ([1]; 4 h): <0.1%
- percentage of radiolabeled phosphate recovered, Large Intestine ([1]; 4 h): 18.16 +/- 2.58%
- percentage of radiolabeled phosphate recovered, Small Intestine ([1]; 4 h): 8.64 +/- 0.32%
- percentage of radiolabeled phosphate recovered, Stomach ([1]; 4 h): 3.9 +/- 0.49%
- percentage of 33P recovered in GI tract, total ([1]; 4 h post 33P phosphate, stomach, small intestine, large intestine and feces, vehicle 25%): 31 ± 7% and 31% and 30.7 +/- 2.43%
- inhibition at 0.4 mg/kg ([1]; Rattus norvegicus, 0.25 h, 15 min post 33P phosphate, versus vehicle, read-out: inhibition of phosphate uptake into plasma): 29%
